Measurements taken from patent US20220008409A1, “CANCER COMBINATION THERAPY USING QUINOLINE CARBOXAMIDE DERIVATIVE” (KABUSHIKI KAISHA YAKULT HONSHA, priority 2018, published 2022).

Assays:
[1] = test system: MDA-MB-231 cells; test: Combination effect of STX-1159 and mTOR inhibitor, WST-8 assay; assay type: cell-based, Human; details: in combination with STX-1159, 48 hours
Method: Human breast cell line MDA-MB-231 cells or MDA-MB-468 cells (in the case of rapamycin) were inoculated on a 96-well plate to 2.5×10^3/100 μL/well or 1.0×10^3/100 μL/well, and cultured under conditions of 5% CO2 and 37° C. To the control group was added DMSO, so as to be a final concentration of 0.05%. Subsequently, the cells were cultured under conditions of 5% CO2 and 37° C. for 48 hours, and the viable cell count was then evaluated by WST-8 assay. […] The absorbance of water-soluble formazan generated by enzymatic activity of mitochondria in cells was measured at 450 nm using a microplate reader (Molecular Devices, Model: SpectraMax Plus).
Human breast cell line MDA-MB-231 cells or MDA-MB-468 cells (in the case of rapamycin) were inoculated on a 96-well plate so as to be 2.5×10^3/100 μL/well or 1.0×10^3/100 μL/well, respectively. The cells were incubated in a CO2 incubator at 37° C. After 24 hours, the supernatant was discarded, and 80 μL of a culture medium for assay was added. […] The mixture was left standing in a CO2 incubator at 37° C. for 48 hours, the supernatant was then removed, and the mixture was washed once with 100 μL of PBS(−). A WST-8 solution diluted by 10 times with the medium for assay was added at 100 μL/well, and the absorbance was measured at a wavelength of 450 nm using a plate reader. CI was calculated from the measured value.

[2] = Combination effect by median-effect method, summary over the cell lines of Example 1; assay type: cell-based; details: in combination with STX-1159; summary of Table 5
Method: The fraction affected (hereinafter, abbreviated as fa) was calculated from the following expression: fa=1-(viable cell count in agent exposure group)/(viable cell count in control group). […] Evaluation of the combination effect was based on grading by CI in Table 4. In calculation of CI, the average of the values from two or more experiments was employed.

[3] = test system: NCI-H2228; test: Combination effect by median-effect method, WST-8 assay; assay type: cell-based, Human; details: in combination with STX-1159, 72 hours
Excerpt: (§1) NCI-H2228, NCI-H1975, SK-BR-3, Hep3B, MCF-7, Caov-3, A2058, K562 and SUP-B15 were purchased from American Type Culture Collection, SAS and HuH-7 were purchased from National Institutes of Biomedical Innovation, Health and Nutrition, and K1, FTC-133 and Ishikawa were purchased European Collection of Authenticated Cell Cultures. […] Fetal bovine serum (hereinafter, abbreviated as FBS) and MCDB 105 culture medium were purchased from Sigma Aldrich (Cat. Nos. 172012 and 117-500), and RMPI1640 culture medium, DMEM medium, Ham's F-12 medium, MEM medium and IMDM culture medium were purchased Thermo Fisher Scientific (Cat. Nos. A1049101, 11995-065, 11765-054, 11095-080 and 12440-053).
(§2) The agents were singly added one day after the cells were inoculated. […] The absorbance of water-soluble formazan generated by enzymatic activity of mitochondria in cells was measured at 450 nm using a microplate reader (Molecular Devices, Model: SpectraMax Plus). This was evaluated as the viable cell count to calculate a 50% cell growth inhibitory concentration (hereinafter, abbreviated as IC50). The reference dose of each agent was set based on IC50 (Table 3).
(§3) One day after the cells were inoculated, for single groups, STX-1159 and the agents were each added so as to be a final concentration which is ¼ times, ½ times, 1 time, 2 times or 4 times the reference dose, and for combination groups, STX-1159 and the agents were added so as to be a final concentration where STX-1159 and the agents combined were each ¼ times, ½ times, 1 time, 2 times or 4 times the reference dose. […] The fraction affected (hereinafter, abbreviated as fa) was calculated from the following expression:
(§4) fa=1−(viable cell count in agent exposure group)/(viable cell count in control group).
(§5) By a median-effect method using combination effect analyzing software CalcuSyn (HULINKS), the combination index (hereinafter, abbreviated as CI) was calculated from fa obtained when STX-1159 and the agents were exposed alone or in combination. Evaluation of the combination effect was based on grading by CI in Table 4. In calculation of CI, the average of the values from two or more experiments was employed.

[4] = test system: A2058; test: as above; assay type: cell-based, Human; details: in combination with STX-1159, 72 hours
Excerpt: as §1, §2, §3, §4, §5

[5] = test system: K562; test: as above; assay type: cell-based, Human; details: in combination with STX-1159, 48 hours
Excerpt: as §1
(§6) The cells were inoculated on a 96-well plate to the density shown in Table 2, and were cultured under conditions of 5% CO2 and 37° C. The agents were singly added one day after the cells were inoculated. To the control group was added DMSO, so as to be a final concentration of 0.05%. Subsequently, the cells were cultured under conditions of 5% CO2 and 37° C. for the time shown in Table 2, and the number living cells was evaluated by WST-8 assay. That is, 10 μL of a WST-8 kit solution (Kishida Chemical Co., ltd, Cat. No. 260-96162) was added to each well, and the cells were cultured under conditions of 5% CO2 and 37° C. for 1 to 2 hours. The absorbance of water-soluble formazan generated by enzymatic activity of mitochondria in cells was measured at 450 nm using a microplate reader (Molecular Devices, Model: SpectraMax Plus). This was evaluated as the viable cell count to calculate a 50% cell growth inhibitory concentration (hereinafter, abbreviated as IC50).
(§7) The cells were inoculated on a 96-well plate so as to be the density shown in Table 2, and were cultured under conditions of 5% CO2 and 37° C. One day after the cells were inoculated, for single groups, STX-1159 and the agents were each added so as to be a final concentration which is ¼ times, ½ times, 1 time, 2 times or 4 times the reference dose, and for combination groups, STX-1159 and the agents were added so as to be a final concentration where STX-1159 and the agents combined were each ¼ times, ½ times, 1 time, 2 times or 4 times the reference dose. To the control group was added DMSO, so as to be a final concentration of 0.1%. Subsequently, the cells were cultured under conditions of 5% CO2 and 37° C. for the time shown in Table 2, and the number living cells was measured by WST-8 assay. The fraction affected (hereinafter, abbreviated as fa) was calculated from the following expression:
as §4, §5

[6] = test system: SUP-B15; test: as above; assay type: cell-based; details: in combination with STX-1159, 72 hours
Excerpt: as §1, §6
as §7, with “expression: […]” for “expression:”
By a median-effect method using combination effect analyzing software CalcuSyn (HULINKS), the combination index (hereinafter, abbreviated as CI) was calculated from fa obtained when STX-1159 and the agents were exposed alone or in combination. […]

[7] = test system: FTC-133; details: in combination with STX-1159, 72 hours
Excerpt: as §1, §6, §7, §4, §5

[8] = test system: K1; test: Combination effect by median-effect method, WST-8 assay; assay type: cell-based, Human; details: in combination with STX-1159, 72 hours
Excerpt: as §1, §2, §3, §4, §5

CNC(=O)c1cccc(-c2ccc3c(N4CCOC[C@@H]4C)nc(N4CCOC[C@@H]4C)nc3n2)c1 [AZD2014]
CI [1]: 0.51 | Combination effect [1]: Synergetic effect (0.3 < CI ≤ 0.7)

COc1ccc(-c2ccc3c(N4CCOC[C@@H]4C)nc(N4CCOC[C@@H]4C)nc3n2)cc1CO [AZD8055]
CI [1]: 0.36 | Combination effect [1]: Synergetic effect (0.3 < CI ≤ 0.7)

Cc1cc(Nc2ncc(Cl)c(Nc3ccccc3S(=O)(=O)C(C)C)n2)c(OC(C)C)cc1C1CCNCC1 [Ceritinib, ceritinib]
combination effect by the median-effect method [2]: synergetic effect | CI [3]: 0.34 | Combination effect [3]: Synergetic effect (0.3 < CI ≤ 0.7)

C[C@@H](Oc1cc(-c2cnn(C3CCNCC3)c2)cnc1N)c1c(Cl)ccc(F)c1Cl [Crizotinib]
combination effect by the median-effect method [2]: synergetic effect | CI [3]: 0.50 | Combination effect [3]: Synergetic effect (0.3 < CI ≤ 0.7)

CC(C)(C)c1nc(-c2cccc(NS(=O)(=O)c3c(F)cccc3F)c2F)c(-c2ccnc(N)n2)s1 [Dabrafenib, dabrafenib]
combination effect by the median-effect method [2]: synergetic effect | CI [4]: 0.73 | Combination effect [4]: Moderate synergetic effect (0.7 < CI ≤ 0.85)

Cc1nc(Nc2ncc(C(=O)Nc3c(C)cccc3Cl)s2)cc(N2CCN(CCO)CC2)n1 [Dasatinib, dasatinib]
CI [5]: 0.78 | Combination effect [5]: Moderate synergetic effect (0.7 < CI ≤ 0.85) | CI [6]: 0.71 | Combination effect [6]: Moderate synergetic effect (0.7 < CI ≤ 0.85)

Cc1c(CN2CCN(C(=O)[C@H](C)O)CC2)sc2c(N3CCOCC3)nc(-c3cnc(N)nc3)nc12 [GDC-0980(RG7422)]
CI [1]: 0.86 | Combination effect [1]: Light synergetic effect (0.85 < CI ≤ 0.9)

O=C1NC(=O)/C(=C/c2ccc3nccc(-c4ccncc4)c3c2)S1 [GSK1059615]
CI [1]: 0.64 | Combination effect [1]: Synergetic effect (0.3 < CI ≤ 0.7)

COc1ncc(-c2ccc3nccc(-c4ccnnc4)c3c2)cc1NS(=O)(=O)c1ccc(F)cc1F [GSK2126458]
CI [1]: 0.63 | Combination effect [1]: Synergetic effect (0.3 < CI ≤ 0.7)

CC(C)n1nc(-c2ccc3oc(N)nc3c2)c2c(N)ncnc21 [INK 128]
CI [1]: 0.56 | Combination effect [1]: Synergetic effect (0.3 < CI ≤ 0.7)

Cc1ccc(NC(=O)c2ccc(CN3CCN(C)CC3)cc2)cc1Nc1nccc(-c2cccnc2)n1 [Imatinib]
CI [5]: 0.83 | Combination effect [5]: Moderate synergetic effect (0.7 < CI ≤ 0.85) | CI [6]: 0.85 | Combination effect [6]: Moderate synergetic effect (0.7 < CI ≤ 0.85) | combination effect by the median-effect method [2]: synergetic effect

COc1ccc(-c2ccc3c(N4CCOCC4)nc(N4C[C@@H](C)O[C@@H](C)C4)nc3n2)cc1CO [KU-0063794]
CI [1]: 0.36 | Combination effect [1]: Synergetic effect (0.3 < CI ≤ 0.7)

COc1cccc2cc(-c3nc([C@H]4CC[C@H](C(=O)O)CC4)n4ncnc(N)c34)[nH]c12 [OSI-027]
CI [1]: 0.49 | Combination effect [1]: Synergetic effect (0.3 < CI ≤ 0.7)

COc1ccc(-c2cc3c(C)nc(N)nc3n([C@H]3CC[C@H](OCCO)CC3)c2=O)cn1 [PF-04691502]
CI [1]: 0.73 | Combination effect [1]: Moderate synergetic effect (0.7 < CI ≤ 0.85)

CN(C)C1CCN(C(=O)c2ccc(NC(=O)Nc3ccc(-c4nc(N5CCOCC5)nc(N5CCOCC5)n4)cc3)cc2)CC1 [PF-05212384(PKI-587)]
CI [1]: 0.63 | Combination effect [1]: Synergetic effect (0.3 < CI ≤ 0.7)

Oc1cccc(-c2nc(N3CCOCC3)c3oc4ncccc4c3n2)c1 [PI-103]
CI [1]: 0.60 | Combination effect [1]: Synergetic effect (0.3 < CI ≤ 0.7)

CC(C)n1nc(-c2cc3cc(O)ccc3[nH]2)c2c(N)ncnc21 [PP242]
CI [1]: 0.84 | Combination effect [1]: Moderate synergetic effect (0.7 < CI ≤ 0.85)

Nc1ncnc2c1c(-c1cnc3[nH]ccc3c1)nn2C1CCCC1 [PP-121]
CI [1]: 0.88 | Combination effect [1]: Light synergetic effect (0.85 < CI ≤ 0.9)

CCC(=O)N1CCN(c2ccc(-n3c(=O)ccc4cnc5ccc(-c6cnc7ccccc7c6)cc5c43)cc2C(F)(F)F)CC1 [Torin 1]
CI [1]: 0.68 | Combination effect [1]: Synergetic effect (0.3 < CI ≤ 0.7)

Nc1ccc(-c2ccc3ncc4ccc(=O)n(-c5cccc(C(F)(F)F)c5)c4c3c2)cn1 [Torin 2]
CI [1]: 0.66 | Combination effect [1]: Synergetic effect (0.3 < CI ≤ 0.7)

CC(=O)Nc1cccc(-n2c(=O)n(C3CC3)c(=O)c3c(Nc4ccc(I)cc4F)n(C)c(=O)c(C)c32)c1 [Trametinib, trametinib]
CI [4]: 0.78 | Combination effect [4]: Moderate synergetic effect (0.7 < CI ≤ 0.85)

COc1cc2c(Nc3ccc(Br)cc3F)ncnc2cc1OCC1CCN(C)CC1 [Vandetanib, vandetanib]
CI [7]: 0.75 | Combination effect [7]: Moderate synergetic effect (0.7 < CI ≤ 0.85) | CI [8]: 0.69 | Combination effect [8]: Synergetic effect (0.3 < CI ≤ 0.7)

c1cncc(CN2CCC(n3ncc4c(N5CCOCC5)nc(-c5ccc6[nH]ccc6c5)nc43)CC2)c1 [WAY-600]
CI [1]: 0.64 | Combination effect [1]: Synergetic effect (0.3 < CI ≤ 0.7)

COC(=O)Nc1ccc(-c2nc(N3CCOCC3)c3cnn(C4CCN(Cc5cccnc5)CC4)c3n2)cc1 [WYE-687]
CI [1]: 0.85 | Combination effect [1]: Moderate synergetic effect (0.7 < CI ≤ 0.85)

CNC(=O)Nc1ccc(-c2nc(N3CC4CCC(C3)O4)c3cnn(C4CCC5(CC4)OCCO5)c3n2)cc1 [WYE-125132]
CI [1]: 0.40 | Combination effect [1]: Synergetic effect (0.3 < CI ≤ 0.7)
